This is an account of results in patent publication US20180333386A1, “AGENTS USEFUL FOR TREATING FRIEDREICH'S ATAXIA AND OTHER NEURODEGENERATIVE DISEASES” (IXCHEL PHARMA LLC, priority 2011, published 2018).

Entries after “also recorded” stand apart in the source; their conditions may differ. Where a name gives a salt, the structure may show the parent alone.

What is called EC50 is the concentration that produces a half-maximal response.

For series [1], the system named is frataxin deficient 50B11 dorsal root ganglion cell line. As to the kind of experiment: Thiol-antioxidant inhibitors in siRNA-mediated frataxin deficient 50B11 dorsal root ganglion cell line. The series is classed as cell-based. The following applies: for death of neurons with frataxin deficiency on treatment: siRNA frataxin knockdown vs. control. As for the experimental part:
Therefore, 11 inhibitors of these antioxidants were tested in siRNA-mediated frataxin deficient 50B11 dorsal root ganglion cell line. […] The major mitochondrial antioxidant system is thioredoxin reductase. Auranofin is a specific inhibitor of thioredoxin reductase, and diamide is a known oxidizer of thioredoxin. Thus the diamide screen identifies compounds that rescue from thioredoxin reductase deficiency, which include inducers of Nrf2, which are known to induce thioredoxin reductase and other antioxidant functions.

For series [2], the system named is human FRDA patient fibroblasts. In words: Diamide screening assay: protection of FRDA patient fibroblasts from diamide toxicity (Calcein-AM viability). To be noted: for protection from diamide toxicity: 200 micromolar diamide, result in words; for EC50: Homo sapiens, Fibroblast; for EC50 / maximum effect of protection from diamide toxicity, fold increase from baseline: n=3; for maximum effect of protection from diamide toxicity, fold increase from baseline: dose-response. It is filed as cell-based. The text has this:
The cell-based assay was further optimized for high-throughput screening in 96-well plates, with an excellent screening window and low variability, represented by a Z′ value of 0.75 (n=5) and was used to screen a library of 1600 drugs that have been approved for clinical use in the USA. Drugs that rescued at DMSO mean+two standard deviations were repeated an additional two times. Compounds that rescued in >2 screens advanced to secondary screening, which included replication of protective effect in a concentration-dependent manner, 0.01-10 μM. […] Additional mechanisms are listed below.
Diamide Screening Method Format: On the day one of the assay, cell density was determined using the Vi-Cell counter, and a volume corresponding to 5,500 human FRDA patient fibroblasts per well was aliquoted into 96-well black/clear poly-d-lysine coated plates in growth media, and the cells were allowed 3 hours to attach. Drugs (10 mM stock in DMSO) are dispensed into wells after an intermediate dilution in PBS, giving a final DMSO concentration of 0.1% using an electronic multichannel pipette. Test compounds were tested at 10 micromolar. There were 8 negative control (0.1% DMSO only) and 8 positive control (300 micromolar DTT) wells on each plate. Plates were incubated at 37 C and 5% CO2 for twenty-four hours after which 200 micromolar diamide was added to all wells. Plates were incubated for an additional 16 hours as before. Cells were washed with PBS and incubated with Calcein-AM cell viability dye (Invitrogen, Carlsbad, Calif., USA) and fluorescence was read with a PolarStar Omega plate reader (BMG LabTech, Cary, N.C.). Hits were scored as Basal Median+3×MAD.

Series [3] relates to frataxin (FXN) protein in HeLa cells. As to the kind of experiment: Frataxin protein level in HeLa cells by Western blot. It is filed as cell-based, human. As for the experimental part: (§1) To test if one mechanism of protection from diamide toxicity for dyclonine was an increase in frataxin protein levels, HeLa cells or FRDA patient lymphoblasts were cultured for 48 hr in the presence of 10 micromolar dyclonine in 6 well dishes. Cells were harvested and whole cell lysates were analyzed by Western blot (protocol below). Representative blots are shown for HeLa cells (FIG. 5A) and FRDA and healthy siblings lymphoblasts (FIG. 5B), as well as densitometry normalization to actin. Dyclonine induction of FXN levels was consistent over multiple experiments (FIG. 5C).
(§2) Western Blot Protocol: Forty micrograms of whole-cell lysates were analyzed on […] Bis-Tris gels (Invitrogen, Carsbad, Calif., USA). Electrophoresis was carried out according to the manufacturer's instruction. After electrophoresis, the proteins were transferred to nitrocellulose membranes by iBlot device (Invitrogen). The membranes were blocked with blocking buffer (Odyssey, Lincoln, Nebr., USA) for 1 h and incubated overnight with primary antibodies in blocking buffer: anti-frataxin anti-β-actin, tubulin, (Sigma). Afterwards, the membranes were incubated with a corresponding pair of IRDye 680CW- and IRDye 800CW-coupled (Odyssey) secondary antibodies for 1 h. The membranes were washed four times with 1× Tris-buffered saline with Tween 20 and proteins were visualized with a LI-COR infrared imager (Odyssey). The pictures were processed by Odyssey version 3.0 infrared imaging software.
(§3) An additional hit in the diamide screening assay in FRDA fibroblasts was dimethyl fumarate (protocol above). […] To test if the mechanism of protection from diamide toxicity was an increase in frataxin protein levels, HeLa cells or FRDA patient lymphoblasts were cultured for 48 hr in the presence of 0.03-30 micromolar dimethyl fumarate in 12-well dishes. Cells were harvested and whole cell lysates were analyzed by Western blot (protocol above). Representative blots are shown for HeLa cells (FIG. 9A) and FRDA lymphoblasts (FIG. 9B). FXN was induced 1.37 fold ±0.1 (n=3) in HeLa cells, and 2.4 fold ±0.9 (n=3) in FRDA lymphoblasts.
On the technique in general: Immunoblotting shows a protein as a band on a membrane.

The subject of series [4] is frataxin (FXN) protein in FRDA patient lymphoblasts. In words: Frataxin protein level in FRDA patient lymphoblasts by Western blot. The series is classed as cell-based, human. To be noted: 48 hr. The procedure: as §1, §2, §3
An additional hit in the diamide screening assay (protocol above) in FRDA fibroblasts was the phenathiazine, tolonium cl. […] To test if the mechanism of protection from diamide toxicity was an increase in frataxin protein levels, the phenothiazines tolonium cl and methylene blue were tested. […] Cells were harvested and whole cell lysates were analyzed by Western blot (protocol above). […]
To test if Methylene blue also potentiates DMF-mediated FXN induction, FRDA patient lymphoblasts were cultured for 48 hr in the presence of 3 micromolar dimethyl fumarate and 3 micromolar methylene blue in 6 well dishes. Cells were harvested and whole cell lysates were analyzed by Western blot (protocol above).

For series [5], the system named is frataxin (FXN) protein in YG8 FRDA transgenic mouse. As to the kind of experiment: Frataxin level in YG8 FRDA transgenic mouse model (Western blot of cerebellum and splenocytes). The series is classed as in vivo. To be noted: for FXN expression in vivo, FXN/actin densitometry: hemizygous YG8 mice; for frataxin in brains and other tissues of the animal model of FRDA: result in words. As for the experimental part: Dyclonine increases frataxin levels in vivo. To determine ability of dyclonine to reverse the in vivo FXN protein defect, the YG8 FRDA transgenic mouse model was chosen. Hemizygous animals with the least frataxin were separated into vehicle and treatment groups. Homozygous mice (two copies of FXN gene) were used as positive control. Animals were dosed daily with 1 mg/kg dyclonine via intraperitoneal injection for 6 days. At the end of the study, the animals were sacrificed, and processed for biochemical analysis, i.e. Western blots of treated and vehicle groups of Cerebellum and splenocyte frataxin level. Western blot of cerebellum and splenocytes is shown (FIG. 6A) and densitometry of FXN/actin normalization (FIG. 6B) showing dyclonine induces FXN expression in vivo by 1.5-2 fold.
Of these 20, 8 were tested in the YG8 transgenic mouse model. […] Animals were dosed daily with 1-10 mg/kg drug via intraperitoneal injection for 6 days. At the end of the study, the animals were sacrificed, and processed for biochemical analysis, i.e. Western blots (protocol above) of treated and vehicle groups of Cerebellum and splenocyte frataxin level. Western blot of cerebellum is shown (FIG. 7B) and densitometry of FXN/actin normalization (FIG. 7A) showing dimethyl fumarate, dyclonine, methylene blue, and nifursol induce FXN expression in vivo by 1.5-2 fold.
To determine ability of dimethyl fumarate to reverse the in vivo FXN protein defect, the YG8 FRDA transgenic mouse model was chosen. Hemizygous animals with largest FXN defect, were separated into vehicle and treatment groups. Homozygous mice were used as positive control. Animals were dosed daily with 5 mg/kg dimethyl fumarate via intraperitoneal injection for 6 days. A non-specific HDAC inhibitor was used as a positive control, dosed at 1 mg/kg. At the end of the study, the animals were sacrificed, and processed for biochemical analysis, i.e. Western Blots of treated and vehicle groups of cerebellum and splenocyte frataxin level.

Series [6] relates to Nrf2 target antioxidant response element (ARE). As to the kind of experiment: Nrf2/ARE luciferase assay in reporter HeLa cell line. To be noted: for Nrf2/ARE activity (ARE-luciferase): 24 hours, threshold mean+2× Standard deviation of the vehicle control. It is filed as cell-based, human. The procedure:
To evaluate the mechanism of FXN induction of the […] that protected from diamide, the potency of each to activate the Nrf2 target antioxidant response element (ARE) was evaluated. 10 of the 20 frataxin inducers interacted with the Nrf2 pathway in a significant way, either positively or negatively. The dashed line=mean+2×SD. […] Dyclonine's induction of ARE/Nrf2 activity was dose-dependent (FIG. 13B).
The Nrf2 reporter HeLa cell line was generated using the Lenti Antioxidant Response Reporter (Qiagen, Valencia, Calif.) system, which expressed firefly luciferase gene and the ARE transcriptional response element. 15,000 cells/well were plated in 90 ul in phenol-free DMEM media in white wall/bottom 96 well plates. Drugs were added and plates incubated at 37 C for 24 hours. 75 microliters of Bright Glo Luciferase Assay Reagent (Promega, Madison, Wis.) with combined lysis solution was added to all wells and allowed to incubate for 5 minutes at room temperature. Luminescence was then read with a PolarStar Omega plate reader (BMG LabTech, Cary, N.C.).

Series [7] relates to frataxin (FXN) protein in FRDA lymphoblasts. As to the kind of experiment: In-cell Western of FXN in FRDA lymphoblasts (synergy of FXN-inducing drugs). It is filed as cell-based, human. The following applies: 5 micromolar dyclonine with dose-response of dimethyl fumarate, 48 hours. The procedure: To evaluate potential synergy of identified FXN-inducing drugs, a dose-response of dimethyl fumarate in the absence or presence of 5 micromolar dyclonine was determined in FRDA lymphoblasts incubated for 48 hours in 96 well plates. Whole cells were fixed and permeabilized and for analyzed using in-cell Western technique (protocol below).
In-Cell Western Blot Protocol: 50,000 cells/well were plated in black walled clear bottom 96-well poly-d-lysine coated plates. After drug treatment, media was removed by aspiration and cells were fixed by addition of 100 ul/well of 3.7% formaldehyde in PBS. After 30 minutes, fixing solution was removed and 100 ul/well of 0.1% TritonX100 in PBS was added to all wells. After 40 minutes, cells were blocked with 100 ul blocking buffer (Odyssey, Lincoln, Nebr., USA) for 1 h and incubated with primary antibodies in blocking buffer: anti-frataxin (Mitosciences, Eugene, Oreg.) anti-β-actin (Sigma) for one hour. Cells were washed three times with 1× Tris-buffered saline with Tween 20, and then incubated with 100 ul/well of IRDye 680CW- and IRDye 800CW-coupled (Odyssey) secondary antibodies for 1 h. The cells were washed three times with 1× Tris-buffered saline with Tween 20 and signal was visualized with a LI-COR infrared imager (Odyssey). The pictures were processed by Odyssey version 3.0 infrared imaging software.

For `O[C@@H](CS)[C@@H](O)CS` [DTT], in series [1] (frataxin deficient DRG cell line / Friedreich's patient fibroblasts), the “reversal of sensitivity to diamide” value is “could be reversed”.
Take `CC(=O)OC[C@H]1O[C@@H]([S-])[C@H](OC(C)=O)[C@@H](OC(C)=O)[C@@H]1OC(C)=O.CCP(CC)CC.[Au+]` [auranofin]: the “death of neurons with frataxin deficiency on treatment” value in series [1] was “died more rapidly”.
Still for that read-out and setting: the result for `CN(C)C(=O)/N=N/C(=O)N(C)C` [diamide] reads “died more rapidly”.
In the case of `COC(=O)/C=C/C(=O)OC` [dimethyl fumarate], in series [2], the “protection from diamide toxicity” value is “neuroprotective; also recorded: dose-dependent”; the EC50 was 1300 ± 800 nM; the “maximum effect of protection from diamide toxicity, fold increase from baseline” value is on record as 1.9±0.2 fold. In addition, the “FXN induction in HeLa cells” value in series [3] (48 hr, 0.03-30 micromolar dimethyl fumarate, n=3) was 1.37 fold. Besides, the “significance of FXN induction by concentration” value in series [3] (at 1, 10 and 30 micromolar dimethyl fumarate, 48 hr (FIG. 9C)) is reported as “Significant FXN induction”. The “FXN induction in FRDA lymphoblasts” value in series [4] (0.03-30 micromolar dimethyl fumarate, n=3) was 2.4 fold. The “FXN expression in vivo, FXN/actin densitometry” value in series [5] (5 mg/kg daily intraperitoneal for 6 days, cerebellum, p<0.05) is 1.5-2 fold. Also, the “frataxin in brains and other tissues of the animal model of FRDA” value (shortened to “frataxin in brains and other tissues”) in series [5] is on record as “increased frataxin”. Further, the “Nrf2/ARE activity (ARE-luciferase)” value in series [6] is listed as “induced Nrf2/ARE activity”.
With `CCCCOc1ccc(C(=O)CCN2CCCCC2)cc1` [dyclonine], in series [2], the “protection from diamide toxicity” value is “protected FRDA cells from diamide induced oxidative stress; also recorded: dose dependent protection”. In addition, the “frataxin expression in HeLa cells” value in series [3] (48 hr, 10 micromolar dyclonine, result in words) was “Induces Frataxin Expression”. Besides, in series [4] (10 micromolar dyclonine, result in words), the “frataxin expression in FRDA lymphoblasts” value is recorded as “Induces Frataxin Expression”. The “FXN expression in vivo, FXN/actin densitometry” value in series [5] (1 mg/kg daily intraperitoneal for 6 days, cerebellum and splenocytes) is listed as 1.5-2 fold. The “frataxin in brains and other tissues” value in series [5] is reported as “increased frataxin”. Further, the “potentiation of DMF FXN induction” value in series [7] is listed as “potentiated DMF FXN induction”. For the same molecule, the “Nrf2/ARE activity (ARE-luciferase)” value in series [6] is “induced Nrf2/ARE activity”. Moreover, in series [6] (FIG. 13B), the “dose dependence of induction of ARE/Nrf2 activity” value is given as “dose-dependent”.
Take `CN(C)c1ccc2nc3ccc(=[N+](C)C)cc-3sc2c1` [methylene blue]: the “protection from diamide toxicity” value in series [2] is “neuroprotective”. Moreover, the “potentiation of DMF-mediated FXN induction” value in series [4] (3 micromolar methylene blue with 3 micromolar dimethyl fumarate, Western blot) is “potentiates DMF FXN induction”. The “Fold FXN induction in FRDA lymphoblasts” value in series [4] (10 nanomolar methylene blue, n=2) is given as 1.7 fold. In addition, the “frataxin in brains and other tissues” value in series [5] is on record as “increased frataxin”.
Regarding `O=C(N/N=C/c1ccc([N+](=O)[O-])o1)c1cc([N+](=O)[O-])cc([N+](=O)[O-])c1O` [nifursol], the “protection from diamide toxicity” value in series [2] was “neuroprotective”. Also, in series [5], the “frataxin in brains and other tissues” value is listed as “increased frataxin”.
`Cc1cc2nc3ccc(N(C)C)cc3[s+]c2cc1N` [tolonium cl]: in series [2], the EC50 was 100 ± 10 nM and the “maximum effect of protection from diamide toxicity, fold increase from baseline” value was 1.9±0.1 fold.
As to mepartricin, the “Nrf2/ARE activity (ARE-luciferase)” value in series [6] was “induced Nrf2/ARE activity”.
